This is an account of results in patent publication US11472772B2, “S1P3 antagonists” (Teva Pharmaceutical Industries, Ltd., priority 2013, dated 2022).

Assay type in all cases: in vivo, rat
Experiment [1] concerns Abeta(25-35) lesioned rats. In words: Abeta(25-35) peptide injection in NBM of rats: GFAP staining. Particulars: 30 mg/kg, Kruskall-Wallis. The source says:
(§1) The efficacy of the compounds of the invention on neurodegeneration and neuroinflammation can be evaluated with two different methodological approaches aimed to reproduce some pathological features of Alzheimer's disease: • 1) the excitotoxic insult (quisqualic acid—QUIS) in the Nucleus Basalis Magnocellularis (NBM), characterized by severe neurodegeneration of cholinergic neurons along with significant neuroinflammation. • 2) the β-amyloid peptide 25-35 (Aβ25-35) injection in NBM of rats, inducing a significant glia reaction around Aβ25-35 deposits with modest toxicity on cholinergic neurons. • Readouts are based on immunochemical analysis and are: count of cholinergic neurons (ChAT-positive), astrocytes (GFAP-positive) and microglia (OX-42 or Iba-1 positive). The analysis is performed by two different approaches, the visual scoring (blind) and the digital platform APERIO®.
(§2) Three-month old male Wistar rats (Harlan, Milan, Italy) weighing 230-250 g were used. The rats were housed in macrolon cages with ad lib food and water and maintained on a 12 h light/dark cycle at 23° C. room temperature (RT). All experiments were carried out according to the guidelines of the European Community's Council for Animal Experiments (86/609/EEC). Efforts were made to minimize the number of animals used and their suffering. […]

Experiment [2] concerns quisqualic acid lesioned rats. In words: Object Recognition Test (ORT) on quisqualic acid lesioned rats. Particulars: exploration time of familiar vs novel object. The protocol: QUIS-treated animals can also undergo the Object Recognition Test (ORT, measuring episodic memory) or other behavioural tests to measure the improvement of cognitive functions upon treatment with a compound of the invention.
as §2
Object recognition was evaluated according to Ennanceur and Delacour (1988) and Scali et al., (1997). […] The times spent exploring the familiar (F) and the new object (N) were recorded separately and the difference between the two exploration times was taken. […]

The subject of experiment [3] is quisqualic acid lesioned rats. In words: Quisqualic acid (QUIS) injection in Nucleus Basalis Magnocellularis of rats: immunohistochemistry for neurodegeneration and neuroinflammation (ChAT, GFAP, OX42).
Source text: as §1
Three-month old male Wistar rats (Harlan, Milan, Italy) weighing 230-250 g were used. The rats were housed in macrolon cages with ad lib food and water and maintained on a 12 h light/dark cycle at 23° C. room temperature (RT). All experiments were carried out according to the guidelines of the European Community's Council for Animal Experiments (86/609/EEC). Efforts were made to minimize the number of animals used and their suffering.
The quisqualic acid (Sigma Chemical Co., Milan, Italy; dissolved in phosphate buffer at the concentration of 0.12 M volume 0.5 μl) or 10 ug of ABeta(25-35) peptide (Bachem) dissolved PBS at the concentration of 10 μg/μl and aggregate at 37° for 2 h before injection volume 1 μl) was injected by means of an Hamilton microsyringe into the right NBM under chloral hydrate anaesthesia at the following stereotaxic coordinates: AP=−0.2, L=−2.8 from bregma and H=7 from the dura (Paxinos and Watson, 1982, Casamenti et al., 1998). Controlateral NBM were injected with PBS solution. The study was performed for 7 days after surgery. […]

In the case of `CCCC(C(=O)Nc1cnc(Br)cn1)c1cncc(Br)c1` (stereo not drawn) [Example 33, 2-(5-Bromo-pyridin-3-yl)-pentanoic acid (5-bromo-pyrazin-2-yl)-amide], the “GFAP-positive cells, quantitative analysis by visual scoring” value in experiment [1] is on record as “p<0.05 vs vehicle group”. For the same molecule, the “Cognitive functions in ORT (episodic memory)” value is recorded as “improved cognitive functions” in experiment [2] and “significantly ameliorates cognitive functions” in experiment [2] (listed as example 33). The “Neuroprotective effect, rat NBM ChAT-positive neuron counts (APERIO)” value in experiment [3] (30 and 60 mg/Kg/day p.o., QUIS lesioned rats) was “strong neuroprotective effects”. Moreover, the “Anti-neuroinflammatory effect on astrocytes, GFAP reactivity” value in experiment [3] (30 and 60 mg/Kg/day, QUIS lesioned rats) is “strong activity on GFAP reactivity”. Moreover, in experiment [3] (doses ranging 10 to 60 mg/kg), the “Anti-neuroinflammatory and neuroprotective activity in the in vivo assays (FIGS. 1-3)” value is “anti-neuroinflammatory and neuroprotective activity”.
